Experimental data reported in patent US8906925B2, “Pyrido[4,3-B]indoles containing rigid moieties” (Medivation Technologies, Inc., priority 2008, dated 2014).

Key:
[1] = target: T1, human recombinant adrenergic α2A receptor (Homo sapiens, UniProt P08913); assay: Adrenergic α2A radioligand binding ([3H]MK-912); details: percent inhibition of specific binding, compound at 1 μM; for inhibition at 1 µM: read-out: Inhibition of ligand binding, Adrenergic α2A
T1 construct: expressed in transfected cells; host or cells: insect Sf9 cells
T1 sequence (P08913 1-465): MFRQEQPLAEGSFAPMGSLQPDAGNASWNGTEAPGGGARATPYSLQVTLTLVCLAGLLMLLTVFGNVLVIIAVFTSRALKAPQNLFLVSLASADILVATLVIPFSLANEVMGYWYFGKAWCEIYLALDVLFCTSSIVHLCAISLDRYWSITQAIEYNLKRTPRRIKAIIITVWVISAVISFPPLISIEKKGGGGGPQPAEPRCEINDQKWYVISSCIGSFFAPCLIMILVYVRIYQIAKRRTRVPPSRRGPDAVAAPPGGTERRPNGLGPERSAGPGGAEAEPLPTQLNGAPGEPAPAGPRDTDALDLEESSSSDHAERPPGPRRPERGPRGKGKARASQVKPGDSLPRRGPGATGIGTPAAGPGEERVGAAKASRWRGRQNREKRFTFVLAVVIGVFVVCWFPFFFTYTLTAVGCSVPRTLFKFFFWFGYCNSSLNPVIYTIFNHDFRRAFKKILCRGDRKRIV
Description: To evaluate in radioligand binding assays the activity of compounds of the invention, human recombinant adrenergic α2A receptor expressed in insect Sf9 cells (Uhlen S et al. J Pharmacol Exp Ther. 271:1558, 1994) in a modified Tris-HCl buffer (50 mM Tris-HCl, pH 7.4, 12.5 mM MgCl2, 2 mM EDTA) was used. Compounds of invention were incubated with 1 nM [^3H]MK-912 for 60 min. at 25° C. MK912 is (2S-trans)-1,3,4,5′,6,6′,7,12b-octahydro-1′,3′-dimethyl-spiro[2H-benzofuro[2,3-a]quinolizine-2,4′(1′H)-pyrimidin]-2′(3′H)-one hydrochloride Non-specific binding was estimated in the presence of 10 μM WB-4101 (2-(2,6-Dimethoxyphenoxyethyl)aminomethyl-1,4-benzodioxane hydrochloride). Receptor proteins were filtered and washed, the filters were then counted to determine [^3H]MK-912 specifically bound. Compounds were screened at 1 μM or lower, using 1% DMSO as vehicle. Biochemical assay results are presented as the percent inhibition of specific binding in Table 9.

[2] = target: T2, human recombinant histamine H2 receptor (Homo sapiens, UniProt P25021); assay: Histamine H2 radioligand binding ([125I]Aminopotentidine); details: read-out: Histamine Binding (1 μM) H2, percent inhibition of specific binding, 1 μM
T2 construct: expressed in transfected cells; host or cells: Chinese hamster ovary (CHO) K1 cells
T2 sequence (P25021 whole entry): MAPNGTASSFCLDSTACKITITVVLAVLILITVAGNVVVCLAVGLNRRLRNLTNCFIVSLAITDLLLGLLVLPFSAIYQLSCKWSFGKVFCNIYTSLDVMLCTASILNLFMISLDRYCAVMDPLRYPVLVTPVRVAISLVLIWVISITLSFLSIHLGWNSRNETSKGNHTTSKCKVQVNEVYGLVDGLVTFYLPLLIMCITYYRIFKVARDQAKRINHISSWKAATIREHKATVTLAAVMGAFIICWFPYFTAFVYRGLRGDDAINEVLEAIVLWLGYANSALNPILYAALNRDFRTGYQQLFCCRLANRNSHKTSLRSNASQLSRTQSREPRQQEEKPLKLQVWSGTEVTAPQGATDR
Outline: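 Receptor source: human recombinant H2 in CHO-K1 cells, assayed in 50 mM phosphate pH 7.4. Competition against 0.1 nM [125I]aminopotentidine, 120 min, 25 °C; 3 μM tiotidine sets nonspecific binding, filter-bound counts give specific binding.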

[3] = target: T3, human recombinant adrenergic α2B receptor (Homo sapiens, UniProt P18089); assay: Adrenergic α2B radioligand binding ([3H]Rauwolscine); details: percent inhibition of specific binding; compound at 1 μM; read-out: Inhibition of ligand binding, Adrenergic α2B
T3 construct: expressed in transfected cells; host or cells: Chinese hamster ovary (CHO-K1) cells
T3 sequence (P18089 1-450): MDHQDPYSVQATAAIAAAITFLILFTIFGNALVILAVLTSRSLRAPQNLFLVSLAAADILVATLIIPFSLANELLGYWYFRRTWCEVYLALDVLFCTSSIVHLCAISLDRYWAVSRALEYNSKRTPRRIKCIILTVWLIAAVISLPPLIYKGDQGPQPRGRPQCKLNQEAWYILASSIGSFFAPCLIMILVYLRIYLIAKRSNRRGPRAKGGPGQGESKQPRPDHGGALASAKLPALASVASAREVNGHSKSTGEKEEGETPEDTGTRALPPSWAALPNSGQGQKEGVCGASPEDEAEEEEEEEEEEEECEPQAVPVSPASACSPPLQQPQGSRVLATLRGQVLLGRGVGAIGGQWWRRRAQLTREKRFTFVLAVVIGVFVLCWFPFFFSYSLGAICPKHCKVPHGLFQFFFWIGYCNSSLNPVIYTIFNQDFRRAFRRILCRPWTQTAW
Description: To evaluate in radioligand binding assays the activity of compounds of the invention, human recombinant adrenergic α2B receptor expressed in Chinese hamster ovary (CHO-K1) cells (Uhlen S et al. Eur J Pharmacol. 343(1):93, 1998) in a modified Tris-HCl buffer (50 mM Tris-HCl, pH 7.4, 12.5 mM MgCl2, 1 mM EDTA, 0.2% BSA) was used. Compounds of the invention were incubated with 2.5 nM [^3H]Rauwolscine for 60 min. at 25° C. Non-specific binding was estimated in the presence of 10 μM Prozosin. Receptor proteins were filtered and washed, the filters were then counted to determine [^3H]Rauwolscine specifically bound. Compounds were screened at 1 μM or lower, using 1% DMSO as vehicle. Biochemical assay results are presented as the percent inhibition of specific binding in Table 9.

[4] = target: T4, human recombinant serotonin (5-Hydroxytryptamine) 5-HT6 receptor (Homo sapiens, UniProt P50406); assay: Serotonin 5-HT6 radioligand binding ([3H]LSD); details: read-out: Inhibition of ligand binding, Serotonin 5-HT6 (percent inhibition of specific binding); for inhibition at 0.1 µM: compound at 0.1 μM; for inhibition at 1 µM: compound at 1 μM
T4 construct: expressed in transfected cells; host or cells: human HeLa cells
T4 sequence (P50406 whole entry): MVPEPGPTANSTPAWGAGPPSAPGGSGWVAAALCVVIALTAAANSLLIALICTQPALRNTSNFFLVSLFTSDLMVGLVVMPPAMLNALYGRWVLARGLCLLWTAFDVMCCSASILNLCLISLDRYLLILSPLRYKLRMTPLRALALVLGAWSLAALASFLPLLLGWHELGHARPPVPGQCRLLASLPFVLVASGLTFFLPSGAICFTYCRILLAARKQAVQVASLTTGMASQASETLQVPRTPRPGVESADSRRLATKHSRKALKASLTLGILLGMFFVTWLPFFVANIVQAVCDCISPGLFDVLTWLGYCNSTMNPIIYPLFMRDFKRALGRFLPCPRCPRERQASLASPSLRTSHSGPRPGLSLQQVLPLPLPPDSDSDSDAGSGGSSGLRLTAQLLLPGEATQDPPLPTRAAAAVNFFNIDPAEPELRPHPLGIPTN
Description: Compounds of the invention were incubated with 1.5 nM [3H]Lysergic acid diethylamide (LSD) for 120 min. at 37° C. […] Receptor proteins were filtered and washed, the filters were then counted to determine [3H]LSD specifically bound. Compounds were screened at 1 μM or lower, using 1% DMSO as vehicle. Biochemical assay results are presented as the percent inhibition of specific binding in Table 10.

| SMILES | Inhibition of ligand binding, Adrenergic α2A ([1]; 1 µM) [%] | inhibition at 1 µM [2] [%] | inhibition at 1 µM [3] [%] | inhibition at 0.1 µM [4] [%] | inhibition at 1 µM [4] [%] | inhibition at 1 µM [1] [%] |
| --- | --- | --- | --- | --- | --- | --- |
| CC(=Cn1c2c(c3cc(Cl)ccc31)CN(C)CC2)c1ccc(Cl)cc1Cl (stereo in doubt) [Compound 111, (Z)-8-chloro-5-(2-(2,4-dichlorophenyl)prop-1-enyl)-2,3,4,5-tetrahydro-2-methyl-1H-pyrido[4,3-b]indole] | 101 | 91 | 90 | 71 | 94 |  |
| CN1CCc2c(c3cc(Cl)ccc3n2CC(C)(O)c2ccc(F)cc2)C1 (stereo not drawn) [Compound 45, 1-(8-chloro-1,2,3,4-tetrahydro-2-methylpyrido[4,3-b]indol-5-yl)-2-(4-fluorophenyl)propan-2-ol] |  | 94 | 109 | 48 | 94 | 89 |
| Cc1ccc(C(C)(O)Cn2c3c(c4cc(Cl)ccc42)CN(C)CC3)cn1 (stereo not drawn) [Compound 47, 1-(8-chloro-1,2,3,4-tetrahydro-2-methylpyrido[4,3-b]indol-5-yl)-2-(6-methylpyridin-3-yl)propan-2-ol] |  | 48 | 106 |  | 39 | 81 |
| Cc1ccc2c(c1)c1c(n2CC(O)c2ccc(C)nc2)CCN(C)C1 (stereo not drawn) [Compound 48, 2-(2,8-dimethyl-3,4-dihydro-1H-pyrido[4,3-b]indol-5(2H)-yl)-1-(6-methylpyridin-3-yl)ethanol] |  | 47 | 100 |  | 59 | 83 |
| Cc1ccc2c(c1)c1c(n2CC(C)(O)c2ccc(C)nc2)CCN(C)C1 (stereo not drawn) [Compound 52, 1-(1,2,3,4-tetrahydro-2,8-dimethylpyrido[4,3-b]indol-5-yl)-2-(6-methylpyridin-3-yl)propan-2-ol] |  | 51 | 104 |  | 37 | 84 |
| Cc1ccc2c(c1)c1c(n2CC(O)c2cccnc2)CCN(C)C1 (stereo not drawn) [Compound 54, 2-(1,2,3,4-tetrahydro-2,8-dimethylpyrido[4,3-b]indol-5-yl)-1-(pyridin-3-yl)ethanol] |  | 5 | 103 |  | 31 | 39 |
| Cc1ccc2c(c1)c1c(n2CC(C)(O)c2ccc(F)cc2)CCN(C)C1 (stereo not drawn) [Compound 55, 2-(4-fluorophenyl)-1-(1,2,3,4-tetrahydro-2,8-dimethylpyrido[4,3-b]indol-5-yl)propan-2-ol] |  | 88 | 108 |  |  | 85 |
| CN1CCc2c(c3cc(Cl)ccc3n2CC(O)c2cccnc2)C1 (stereo not drawn) [Compound 56, 2-(8-chloro-1,2,3,4-tetrahydro-2-methylpyrido[4,3-b]indol-5-yl)-1-(pyridin-3-yl)ethanol] |  | 26 | 112 |  | 62 | 65 |
| COc1ccc(C(C)(O)Cn2c3c(c4cc(Cl)ccc42)CN(C)CC3)cc1 (stereo not drawn) [Compound 57, 1-(8-chloro-1,2,3,4-tetrahydro-2-methylpyrido[4,3-b]indol-5-yl)-2-(4-methoxyphenyl)propan-2-ol] |  | 82 | 108 |  | 68 | 70 |
| COc1ccc(C(C)(O)Cn2c3c(c4cc(Cl)ccc42)CN(C)CC3)cc1F (stereo not drawn) [Compound 59, 1-(8-chloro-1,2,3,4-tetrahydro-2-methylpyrido[4,3-b]indol-5-yl)-2-(3-fluoro-4-methoxyphenyl)propan-2-ol] |  | 58 | 95 |  | 54 | 83 |
| Cc1ccc2c(c1)c1c(n2CC(C)(O)c2cccnc2)CCN(C)C1 (stereo not drawn) [Compound 60, 1-(1,2,3,4-tetrahydro-2,8-dimethylpyrido[4,3-b]indol-5-yl)-2-(pyridin-3-yl)propan-2-ol] |  | 40 | 96 |  | 50 | 81 |
| CN1CCc2c(c3cc(Cl)ccc3n2CC(C)(O)c2cccnc2)C1 (stereo not drawn) [Compound 61, 1-(8-chloro-1,2,3,4-tetrahydro-2-methylpyrido[4,3-b]indol-5-yl)-2-(pyridin-3-yl)propan-2-ol] |  | 41 | 107 |  | 65 | 76 |
| Cc1ccc2c(c1)c1c(n2CC(C)(O)c2ccncc2)CCN(C)C1 (stereo not drawn) [Compound 62, 1-(1,2,3,4-tetrahydro-2,8-dimethylpyrido[4,3-b]indol-5-yl)-2-(pyridin-4-yl)propan-2-ol] |  | 43 | 103 |  | 43 | 57 |
| CN1CCc2c(c3cc(Cl)ccc3n2CC(C)(O)c2ccncc2)C1 (stereo not drawn) [Compound 63, 1-(8-chloro-1,2,3,4-tetrahydro-2-methylpyrido[4,3-b]indol-5-yl)-2-(pyridin-4-yl)propan-2-ol] |  | 53 | 101 |  | 73 | 74 |
| CCC(O)(Cn1c2c(c3cc(Cl)ccc31)CN(C)CC2)c1ccc(F)cc1 (stereo not drawn) [Compound 78, 1-(8-chloro-1,2,3,4-tetrahydro-2-methylpyrido[4,3-b]indol-5-yl)-2-(4-fluorophenyl)butan-2-ol] |  | 89 | 87 | 78 | 101 | 91 |
| CN1CCc2c(c3cc(Cl)ccc3n2CC(O)(c2ccc(F)cc2)C2CC2)C1 (stereo not drawn) [Compound 82, 2-(8-chloro-1,2,3,4-tetrahydro-2-methylpyrido[4,3-b]indol-5-yl)-1-cyclopropyl-1-(4-fluorophenyl)ethanol] |  | 99 | 99 | 90 | 103 | 96 |
| C/C(=C\n1c2c(c3cc(C)ccc31)CN(C)CC2)c1ccc(F)cc1 [Compound 87, (E)-5-(2-(4-fluorophenyl)prop-1-enyl)-2,3,4,5-tetrahydro-2,8-dimethyl-1H-pyrido[4,3-b]indole] |  | 100 | 121 | 97 | 101 | 95 |
